US10112978B2, “Peptide and use thereof” (OSAKA UNIVERSITY, priority 2014, dated 2018)
Ends that are not written are not given here.

How the values were obtained:
THP-1 cells = assay: CD86 and CD54 expression in THP-1 cells (flow cytometry, RFI); assay type: cell-based, human; conditions: overnight culture, relative fluorescence intensity
Procedure: THP-1 cells were seeded at a density of 2.0×10^5 cells/mL in 50 mL of RPMI1640 medium containing 10% FBS and 0.05 mM mercaptoethanol in a 75-cm^2 flask, and precultured for 48 hours.
The precultured THP-1 cells were harvested by centrifugation and suspended at 2.0×10^6 cells/mL in RPMI1640 medium containing 10% FBS and 0.05 mM mercaptoethanol, and the cell suspension was added to a 24-well plate at 500 μL/well. Test peptides were separately dissolved in the same medium as above, and 500 μL of each of the solutions was added to separate wells containing the cell suspension.
After overnight culture, the cells were harvested by centrifugation and washed twice with PBS containing 0.1% BSA (FACS buffer). The cells were then dispersed in 600 μL of FACS buffer containing 0.01% human γ-globulin solution (Sigma, G2388), and incubated at 4° C. for 10 minutes for blocking of Fc receptors.
After that, the cell suspension was divided into three 180-μL aliquots in 1.5-mL tubes, the tubes were centrifuged, and the cell pellets were prepared for the reaction with antibodies. To the cell pellets, FITC-labeled antibody solutions separately diluted to appropriate concentrations in FACS buffer were added in a volume of 50 μL, and incubation was performed at 4° C. for 30 minutes. The antibodies used were CD86 antibody (Pharmingen; Cat#555657), CD54 antibody (Dako; Cat# F7143) and isotype control (Mouse IgG) antibody (Dako; Cat#X0927). After the 30-minute incubation, the cells were harvested by centrifugation and washed twice with FACS buffer. The cells harvested by centrifugation were dispersed in 200 μL of FACS buffer containing 0.625 μg/mL propidium iodide, and the expression levels of the cell surface antigens on 1×10^4 viable cells were measured by flow cytometry. Forward and side scatter gating was not used for the analysis, and the relative fluorescence intensity (RFI) was calculated from the measured mean fluorescence intensities (MFI) by the following formula. […]
When the viability of the non-treated control cells (vehicle treatment cells) was 90% or more, the test was considered valid. In the case where the cell viability at a particular sample concentration used in the test was lower than 50%, the data of the CD54 level at the concentration was excluded from the evaluation.

[1] = tested on: Human hair follicle dermal papilla cells; assay: Production of growth factors (KGF, HGF, VEGF) by hair follicle dermal papilla cells (ELISA); assay type: cell-based; conditions: 5 days
Procedure: Human hair follicle dermal papilla cells in DMEM medium containing 10% FBS were seeded at 3×10^4 cells/well on a 24-well plate and cultured in a CO2 incubator overnight. On the following day, the medium was removed, test peptide solutions in DMEM medium containing 1% FBS were added to the plate, and the cells were cultured in a CO2 incubator for 5 days. The culture supernatant was harvested, and the KGF, HGF and VEGF concentrations in the culture supernatant were measured by ELISA.
In this experiment, OSK-1 and AAP-11 were used as the test peptides, and the concentrations of KGF, HGF and VEGF were measured in the same manner as in Example 9.

Row | Substance | expression of CD54 (THP-1 cells) | expression of CD86 (THP-1 cells) | production of the growth factors (KGF, HGF and VEGF concentrations in the culture supernatant) [1]
1 | ELKLIFLHRLKRLR [AAP-3, C-terminal KRLKRK of OSK-1 deleted] | considerably less active | considerably less active | less effective than OSK-1
2 | ELKLIFLHRLKRLRKR [AAP-2, C-terminal LKRK of OSK-1 deleted] | considerably less active | considerably less active | less effective than OSK-1
3 | FLHRLKRLRKRL [AAP-11] | no considerable reduction in the activity was observed | no considerable reduction in the activity was observed | promoted the production of the indicated growth factors in a concentration dependent manner
4 | HRLKRLRKRLKRK [AAP-12, seven N-terminal amino acids of OSK-1 deleted] | considerably less active than OSK-1 | considerably less active than OSK-1 | 
5 | LIFLHRLKRLRKRL [AAP-6] | no considerable reduction in the activity was observed | no considerable reduction in the activity was observed | 
6 | LKLIFLHRLKRMRKRLdKRK (LKLIFLHRLKRMRKRLKRK; not fully specified (residues 16, 17)) [SR-08, reference compound] | OSK-1 was more highly active for inducing CD54 expression than SR-07 and SR-08 |  | 
7 | MLKLIFLHRLKRMRKRLdKRK (MLKLIFLHRLKRMRKRLKRK; not fully specified (residues 17, 18)) [SR-07, reference compound] | OSK-1 was more highly active for inducing CD54 expression than SR-07 and SR-08 |  | 
